Values after ≈ are worked out from the molar mass of the structure shown. Blank lines part the entries; values can stand above or below the molecule they belong to.
Legend:
Yucatan mini-pigs = assay: Acetylcholine-induced coronary vasoconstriction (no-reflow) in the pig (Example 6, second protocol); format: in vivo; details: 0.3 to 1.0 mg/min infused into the LAD for 20 to 30 min; preliminary studies
Experimental: Animal Studies: All porcine studies were approved by Institutional Animal Care and the Committee of Synchrony Labs LLC, NC. Yucatan mini pigs (25 to 30 Kg) were premeditated with Telazol (5 mg/Kg). Anesthesia was maintained with 1% isoflurane and supplemental oxygen to maintain a pH of 7.4±0.6. Animals received aspirin 300 mg orally for three days prior to the study and were anticoagulated throughout the procedure with heparin (150 units/kg) to maintain ACT greater than 300. Heart rate, EKG changes and blood pressure were monitored continuously utilizing leads I, AVF and AVL with a 6 F sheath in the left femoral artery. […] Coronary blood flow velocity (CFV) was measured utilizing a 0.014-inch Doppler flowwire (Combowire, Volcano Corporation, Rancho Cordova, CA, USA) and dedicated software. CFV was measured as a continuous average pulse wave velocity over 4 seconds and mean values were recorded every 60 seconds.
In the second protocol the ability of the wire to prevent and reverse intense vasoconstriction induced by intracoronary administration of acetylcholine (Ach) was evaluated. […] In other experiments, we evaluated whether an adenosine-releasing wire could prevent the NRF by placing the adenosine-loaded wire initially into the LAD. […]
For statistical analyses, data are expressed as mean±SEM. […]

coronary flow velocity = details: continuous infusion into the LAD at 50 μg/kg/min; previous studies; cited from earlier work
[1] = In vitro drug elution from coated guidewires in phosphate-buffered saline at 37° C. (UV 260 nm); format: physicochemical
Experimental: FIG. 4 illustrates representative time release of a therapeutic agent, adenosine, from the distal 10 cm of three guidewires with two coats of PVA/PVP polymer cured with 2 freeze/thaw cycles. The inner therapeutic coat was a 7.5% (w/w) of PVA/PVP with 1.5 mg of adenosine added as described in the application. The outer barrier layer was made of 10.0% (w/w) of PVA/PVP. The guidewire was placed in a beaker containing phosphate-buffered saline at 37° C. that was constantly stirred with a magnetic device. Samples were taken periodically from the beaker and analyzed for adenosine amount by UV spectrophotometry (absorption at 260 nm). Note the complete elution of the drug in a curvilinear fashion over 60 minutes.
Note that elution was more rapid with greater than 90% eluted over 20 minutes.
FIG. 6 illustrates a representative example of an extremely rapid elution of another drug diltiazem utilizing a polymer with a ratio of PVA/PVAC and two freeze/thaw cycles. The drug was completely eluted over 10 minutes.
Utilizing the same protocol as Example 1, the freeze/thaw cycles were increased to 3-8 and the barrier concentration was increased to 15.0% (w/w). Utilizing adenosine as the prototype therapeutic agent the elution profile was increased with the majority of drug elution occurring in 30 min.

[2] = In vitro release studies in 0.9% saline at 37° C. (Example 6); format: physicochemical
Experimental: In vitro release studies were performed in 0.9% saline rather than in plasma or blood because adenosine has a short half-life (seconds) in the latter two media making detection difficult. Tubes containing 15 ml saline were maintained at 37° C. and 10 cm of the spaced coiled section of the guidewire was placed serially in tubes for 0 to 5, 5 to 10, 10 to 20, 20 to 30, 30 to 40, 40 to 50, and 50 to 60 minutes. One ml samples were then taken from the tube to measure the concentration of adenosine by spectrophotometry (Jackson E K, Mi Z, Koehler M T, Carcillo J A Jr, Herzer W A. Injured erythrocytes release adenosine deaminase into the circulation. J Pharmacol Exp Ther 1996; 279: 1250-60).

[3] = Particle size stability of jet-milled adenosine in hydrogel (laser diffraction and optical microscopy); format: physicochemical; details: after one week in the hydrogel; particles less than 5 microns
Experimental: Next, the inner drug layer was prepared. In this regard, a 20% w/w solution of PVA/PVP (99:1 mass ratio) in DI water was prepared and autoclaved for 1 hr while stirring. This yielded a supersaturated solution which was homogeneous and free of bubbles. Using a water bath, the temperature of the PVA/PVP solution was maintained at 65° C. In order to create a sufficient drug load on the wire, a 25% concentration of adenosine was used in the drug layer. Adenosine has poor solubility in water ([…]) and commercial adenosine has a mean particle size of 55 microns which would have compromised the lubricity of the wire. Utilizing a two-pass jet-milling process, the solid phase adenosine particles were reduced in size to less than 5 microns. Micronized adenosine was mixed in DI water, sonicated for 15 min and then added to the PVA/PVP mixture and the PVA/PVP/adenosine mixture was stirred until a homogeneous solution was obtained. […] Next, the guidewire coated with the PEG-silanol primer was coated with the adenosine-containing hydrogel. Multiple hydroxyl groups in the hydrogel form hydrogen bonds with multiple ether oxygens in the primer, thus creating an extensive network of hydrogen bonds between the drug-containing hydrogel layer and the primer layer (FIG. 14, Reaction 4).

[4] = cited from earlier work
[5] = in plasma or blood; cited from earlier work

SMILES: CC(=O)OCC[N+](C)(C)C [Ach, acetylcholine]
- reduction in CBFV (Yucatan mini-pigs): ~80%

- time in which the majority of drug elution occurred ([1]; Example 2, protocol of Example 1 with 3-8 freeze/thaw cycles and barrier concentration 15.0% (w/w)): 30 min
- time of complete elution of the drug from guidewire ([1]; FIG. 4, distal 10 cm of guidewires, inner coat 7.5% (w/w) PVA/PVP with 1.5 mg adenosine, outer barrier 10.0% (w/w) PVA/PVP, 2 freeze/thaw cycles, curvilinear): 60 min
- drug eluted over 20 minutes ([1]; FIG. 5, 8 freeze/thaw cycles, polymer 10% inner and 15% outer layer): greater than 90%
- time by which most of the remainder was released ([2]; Example 6 guidewires): ≤ 40 min
- total amount of released adenosine ([2]; Example 6 guidewires (PVA/PVP drug layer, PVA/PVAc 1:3 barrier), over 60 min): 2.7±0.2 mg/10 cm length of wire
- adenosine released in the first 20 min ([2]; Example 6 guidewires, relative to 60-min timepoint): approximately 60%
- particle size stability in the hydrogel [3]: stable
SMILES: Nc1ncnc2c1ncn2[C@@H]1O[C@H](CO)[C@@H](O)[C@H]1O [adenosine, Adenosine]
- increase in CFV (coronary flow velocity): approximately 250%
- release profile ([1]; FIG. 7, guidewires coated with polymer mixture of 3:1 and 1:1 ratios of PVAC to PVA): optimal for a typical coronary interventional procedure
- solubility in water [4]: 80 mg/mL (≈ 299 mM)
- half-life [5]: seconds

- time of complete elution of the drug from guidewire ([1]; FIG. 6, polymer with a ratio of PVA/PVAC, two freeze/thaw cycles): 10 min
SMILES: COc1ccc([C@@H]2Sc3ccccc3N(CCN(C)C)C(=O)[C@@H]2OC(C)=O)cc1 [diltiazem]

Reference: patent US12023421B2, “Medical devices for continuous delivery of therapeutic agents” (Adenopaint LLC, priority 2019, dated 2024)
